Assay results: patent US6737383B1, “Herbicidal oxadiazolidines” (priority 1999, dated 2004)

How the values were obtained:
Settings in all cases: Preemergence, 0 to 100 scale
[1] = tested on: surinam grass; assay: Test D surinam grass; type: in vivo, Brachiaria decumbens
Outline: (§1)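 Seeds were sown in greenhouse pots, one species per pot or compartment. Compounds were in a non-phytotoxic solvent mixture with surfactant; preemergence applications went on the sandy loam surface within one day of planting. Injury was rated visually after 14 to 21 days, 0 (none) to 100 (complete control).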

[2] = tested on: dallisgrass; assay: Test D dallisgrass; type: in vivo, Paspalum dilatatum
Outline: as §1

[3] = tested on: guineagrass; assay: Test D guineagrass; type: in vivo, Panicum maximum
Outline: as §1

[4] = tested on: tall mallow; assay: Test D tall mallow; type: in vivo, Malva sylvestris
Outline: as §1

[5] = tested on: itchgrass; assay: Test D itchgrass; type: in vivo, Rottboellia exaltata
Outline: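 Scoring used a 0–100 visual injury scale, with 0 meaning no effect and 100 complete control, assessed 14–21 days after application alongside untreated pots. Preemergence treatments went onto sandy loam surfaces of separately potted seeds within a day of sowing.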

[6] = tested on: large crabgrass; assay: Test D large crabgrass; type: in vivo, Digitaria sanguinalis
Excerpt: (§2) Seeds, tubers, or plant parts of Alexandergrass (Brachiaria plantaginea), bermuda-grass (Cynodon dactylon), common pursiane (Portulaca oleracea), common ragweed (Ambrosia elatior), common groundsel (Senecio vulgaris), dallisgrass (Paspalum dilatatum), goosegrass (Eleusine indica), guineagrass (Panicum maximum), itchgrass (Rottboellia exaltata), Johnson grass (Sorghum halepense), large crabgrass (Digitaria sanguinalis), pitted morningglory (Ipomoea lacunosa), purple nutsedge (Cyperus rotundus), sandbur (Cenchrus echinatus), sourgrass (Trichachne insularis), Spanishneedles (Bidens bipinnata), surinam grass (Brachiaria decumbens) and tall mallow (Malva sylvestris) were planted into greenhouse pots of flats containing greenhouse planting medium. Plant species were grown in separate pots or individual compartments. Preemergence applications were made within one day of planting the seed or plant part.
(§3) Test chemicals were formulated in a non-phytotoxic solvent mixture which included a surfactant and applied preemergence to the surface of the pot containing seeds in a sandy loam soil. Untreated control pots and treated pots were placed in the greenhouse for growth and visually evaluated for injury 14 to 21 days after herbicide application. Plant response ratings, summarized in Table C, are based on a 0 to 100 scale where 0 is no injury and 100 is complete control. A dash (−) response means no test result.

[7] = tested on: goosegrass; assay: Test D goosegrass; type: in vivo, Eleusine indica
Outline: as §1

[8] = tested on: sandbur; assay: Test D sandbur; type: in vivo, Cenchrus echinatus
Excerpt: as §2, §3

[9] = tested on: Johnson grass; assay: Test D Johnson grass; type: in vivo, Sorghum halepense
Outline: as §1

[10] = tested on: purple nutsedge; assay: Test D purple nutsedge; type: in vivo, Cyperus rotundus
Excerpt: as §2, §3

[11] = tested on: common ragweed; assay: Test D common ragweed; type: in vivo, Ambrosia elatior
Excerpt: as §2, §3

[12] = tested on: Spanishneedles; assay: Test D Spanishneedles; type: in vivo, Bidens bipinnata
Outline: as §1

[13] = tested on: pitted morningglory; assay: Test D pitted morningglory; type: in vivo, Ipomoea lacunosa
Excerpt: as §2
as §3, with “Plant response ratings, summarized in Table C, are based on a 0 to 100 scale where 0 is no injury and 100 is complete control.” left out

[14] = tested on: Alexandergrass; assay: Test D Alexandergrass; type: in vivo, Brachiaria plantaginea
Excerpt: as §2, §3

[15] = tested on: Green foxtail; assay: Test D green foxtail; type: in vivo
Excerpt: as §2, §3

[16] = tested on: common groundsel; assay: Test D common groundsel; type: in vivo, Senecio vulgaris
Outline: as §1

[17] = tested on: Green foxtail; assay: Test D green foxtail; type: in vivo; remark: listed apart in the source
Excerpt: as §2, §3

[18] = Rate 16 g/ha, 0 no injury, 100 complete control
[19] = Rate 32 g/ha, 0 no injury, 100 complete control
[20] = Rate 64 g/ha, 0 no injury, 100 complete control
[21] = Rate 125 g/ha, 0 no injury, 100 complete control

Cc1ccccc1-n1c(=O)on(C(=O)N(c2ccc(F)cc2)C(C)C)c1=O [Compound 4]
Plant response rating, Surinam grass [1, 18]: 0
Plant response rating, Surinam grass [1, 19]: 0
Surinam grass plant response rating [1, 20]: 65
Surinam grass plant response rating [1, 21]: 90
Plant response rating, Surinam grass ([1]; Rate 250 g/ha): 85
Plant response rating, Surinam grass ([1]; Rate 500 g/ha): 98
Plant response rating, Dallisgrass [2, 18]: 75
Plant response rating, Dallisgrass [2, 19]: 85
Plant response rating, Dallisgrass [2, 20]: 90
Plant response rating, Dallisgrass [2, 21]: 98
Plant response rating, Dallisgrass ([2]; Rate 250 g/ha): 98
Plant response rating, Dallisgrass ([2]; Rate 500 g/ha): 98
Plant response rating, Guineagrass [3, 18]: 20
Plant response rating, Guineagrass [3, 19]: 20
Plant response rating, Guineagrass [3, 20]: 50
Plant response rating, Guineagrass [3, 21]: 90
Plant response rating, Guineagrass ([3]; Rate 250 g/ha): 100
Plant response rating, Guineagrass ([3]; Rate 500 g/ha): 100
Plant response rating, Tall Mallow [4, 18]: 0
Plant response rating, Tall Mallow [4, 19]: 0
Tall Mallow plant response rating [4, 20]: 0
Tall Mallow plant response rating [4, 21]: 0
Plant response rating, Tall Mallow ([4]; Rate 250 g/ha): 30
Plant response rating, Tall Mallow ([4]; Rate 500 g/ha): 30
Plant response rating, Itchgrass [5, 18]: 0
Plant response rating, Itchgrass [5, 19]: 0
Plant response rating, Itchgrass [5, 20]: 75
Plant response rating, Itchgrass [5, 21]: 0
Plant response rating, Itchgrass ([5]; Rate 250 g/ha): 80
Plant response rating, Itchgrass ([5]; Rate 500 g/ha): 80
Plant response rating, Large crabgrass [6, 18]: 100
Plant response rating, Large crabgrass [6, 19]: 100
Plant response rating, Large crabgrass [6, 20]: 98
Plant response rating, Large crabgrass [6, 21]: 100
Plant response rating, Large crabgrass ([6]; Rate 250 g/ha): 100
Plant response rating, Large crabgrass ([6]; Rate 500 g/ha): 100
Plant response rating, Goosegrass [7, 18]: 70
Plant response rating, Goosegrass [7, 19]: 85
Plant response rating, Goosegrass [7, 20]: 95
Plant response rating, Goosegrass [7, 21]: 98
Plant response rating, Goosegrass ([7]; Rate 250 g/ha): 98
Plant response rating, Goosegrass ([7]; Rate 500 g/ha): 100
Plant response rating, Sandbur [8, 18]: 0
Plant response rating, Sandbur [8, 19]: 0
Sandbur plant response rating [8, 20]: 65
Sandbur plant response rating [8, 21]: 30
Plant response rating, Sandbur ([8]; Rate 250 g/ha): 90
Plant response rating, Sandbur ([8]; Rate 500 g/ha): 100
Plant response rating, Johnsongrass [9, 18]: 0
Plant response rating, Johnsongrass [9, 19]: 0
Plant response rating, Johnsongrass [9, 20]: 30
Plant response rating, Johnsongrass [9, 21]: 0
Plant response rating, Johnsongrass ([9]; Rate 250 g/ha): 30
Plant response rating, Johnsongrass ([9]; Rate 500 g/ha): 30
Plant response rating, Purple nutsedge [10, 18]: 0
Plant response rating, Purple nutsedge [10, 19]: 0
Purple nutsedge plant response rating [10, 20]: 0
Purple nutsedge plant response rating [10, 21]: 0
Plant response rating, Purple nutsedge ([10]; Rate 250 g/ha): 0
Plant response rating, Purple nutsedge ([10]; Rate 500 g/ha): 0
Plant response rating, C. ragweed [11, 18]: 0
Plant response rating, C. ragweed [11, 19]: 0
Plant response rating, C. ragweed [11, 20]: 0
Plant response rating, C. ragweed [11, 21]: 0
Plant response rating, C. ragweed ([11]; Rate 250 g/ha): 0
Plant response rating, C. ragweed ([11]; Rate 500 g/ha): 0
Plant response rating, Spanishneedles [12, 18]: 0
Spanishneedles plant response rating [12, 20]: 0
Spanishneedles plant response rating [12, 21]: 40
Plant response rating, Spanishneedles ([12]; Rate 500 g/ha): 0
Plant response rating, P. morninglory [13, 18]: 0
Plant response rating, P. morninglory [13, 19]: 0
Plant response rating, P. morninglory [13, 20]: 0
Plant response rating, P. morninglory [13, 21]: 0
Plant response rating, P. morninglory ([13]; Rate 250 g/ha): 0
Plant response rating, P. morninglory ([13]; Rate 500 g/ha): 0
Plant response rating, Alexandergrass [14, 18]: 20
Plant response rating, Alexandergrass [14, 19]: 20
Plant response rating, Alexandergrass [14, 20]: 80
Plant response rating, Alexandergrass [14, 21]: 80
Plant response rating, Alexandergrass ([14]; Rate 250 g/ha): 90
Plant response rating, Alexandergrass ([14]; Rate 500 g/ha): 100

CC(C)N(C(=O)n1oc(=O)n(C2CCCCC2)c1=O)c1ccc(F)cc1 [Compound 110]
Plant response rating, Surinam grass ([1]; Rate 250 g/ha): 70
Plant response rating, Surinam grass ([1]; Rate 500 g/ha): 85
Plant response rating, Dallisgrass ([2]; Rate 250 g/ha): 100
Plant response rating, Dallisgrass ([2]; Rate 500 g/ha): 100
Plant response rating, Guineagrass ([3]; Rate 250 g/ha): 100
Plant response rating, Guineagrass ([3]; Rate 500 g/ha): 100
Plant response rating, Tall Mallow ([4]; Rate 250 g/ha): 0
Plant response rating, Tall Mallow ([4]; Rate 500 g/ha): 0
Plant response rating, Green foxtail ([15]; Rate 250 g/ha): 100
Plant response rating, Green foxtail ([15]; Rate 500 g/ha): 100
Plant response rating, Itchgrass ([5]; Rate 250 g/ha): 40
Plant response rating, Itchgrass ([5]; Rate 500 g/ha): 40
Plant response rating, Large crabgrass ([6]; Rate 250 g/ha): 100
Plant response rating, Large crabgrass ([6]; Rate 500 g/ha): 100
Plant response rating, Goosegrass ([7]; Rate 250 g/ha): 100
Plant response rating, Goosegrass ([7]; Rate 500 g/ha): 100
Plant response rating, Com. groundsel ([16]; Rate 250 g/ha): 20
Plant response rating, Com. groundsel ([16]; Rate 500 g/ha): 20
Plant response rating, Sandbur ([8]; Rate 250 g/ha): 98
Plant response rating, Sandbur ([8]; Rate 500 g/ha): 98
Plant response rating, Johnsongrass ([9]; Rate 250 g/ha): 20
Plant response rating, Johnsongrass ([9]; Rate 500 g/ha): 45
Plant response rating, Green foxtail ([17]; Rate 250 g/ha): 100
Plant response rating, Green foxtail ([17]; Rate 500 g/ha): 100
Plant response rating, Purple nutsedge ([10]; Rate 250 g/ha): 0
Plant response rating, Purple nutsedge ([10]; Rate 500 g/ha): 0
Plant response rating, C. ragweed ([11]; Rate 250 g/ha): 0
Plant response rating, C. ragweed ([11]; Rate 500 g/ha): 0
Plant response rating, Spanishneedles ([12]; Rate 500 g/ha): 0
Plant response rating, P. morninglory ([13]; Rate 250 g/ha): 0
Plant response rating, P. morninglory ([13]; Rate 500 g/ha): 0
Plant response rating, Alexandergrass ([14]; Rate 250 g/ha): 100
Plant response rating, Alexandergrass ([14]; Rate 500 g/ha): 100
